Measurements reported in patent US6872742B2, “Substituted cyclic amine metalloprotease inhibitors” (The Procter & Gamble Company, priority 1996, dated 2005).

Legend:
Assay type in all cases: in vivo
[1] = system: patient having deep corneal abrasion; experiment: Example C: saline-based eye drop applied by a patient having deep corneal abrasion; settings: 5% w/w drop applied to each eye twice a day
From the text: (§1) The compounds of the invention are useful to prepare compositions for the treatment of ailments and the like. […] In each case the compounds formula I may be substituted for the example compound shown below with similar results. […] The skilled practitioner will appreciate that the examples provide guidance and may be varied based on condition and the patient. A saline-based composition for local administration, according to the present invention, is made comprising: A patient having deep corneal abrasion applies the drop to each eye twice a day.

[2] = system: patient suffering from chemical burns; experiment: Example D: topical composition applied by a patient suffering from chemical burns; settings: 0.20% w/v topical composition at each dressing change (b.i.d.)
From the text: as §1, with “topical” for “saline-based”, “suffering from chemical burns” for “having deep corneal abrasion”, “composition at” for “drop to”, “dressing change (b.i.d.).” for “eye twice a day.”

[3] = system: human subject suffering from osteoarthritis; experiment: Example B: capsule given daily to a subject suffering from osteoarthritis; settings: capsule containing 70 mg daily for 5 years, 90 kg person
From the text: The compounds of the invention are useful to prepare compositions for the treatment of ailments and the like. […] In each case the compounds formula I may be substituted for the example compound shown below with similar results.
The skilled practitioner will appreciate that the examples provide guidance and may be varied based on condition and the patient.
A capsule for oral administration, according to the present invention, is made comprising:
A human subject weighing 90 kg (198 lbs), suffering from osteoarthritis, is treated by a method of this invention. Specifically, for 5 years, a capsule containing 70 mg of the compound of Example 3 is administered daily to said subject.

[4] = system: human subject suffering from rheumatoid arthritis; experiment: Example A: tablets given orally to a subject suffering from rheumatoid arthritis; settings: tablet with 15 mg compound, three tablets per day orally for 2 years, 60 kg person
From the text: as §1, with “tablet” for “saline-based”, “oral” for “local”, “human subject weighing 60 kg (132 lbs), suffering from rheumatoid arthritis, is treated by a method of this invention. Specifically, for 2 years, a regimen of three tablets per day is administered orally” for “patient having deep corneal abrasion applies the drop”, “said subject.” for “each eye twice a day.”

[5] = system: human subject with a premetastatic tumor; experiment: Example G: parenteral suspension injected next to a premetastatic tumor; settings: 100 mg/ml suspension, approximately 2.0 ml injected beside the tumor twice daily for approximately 30 days
From the text: The compounds of the invention are useful to prepare compositions for the treatment of ailments and the like. […] In each case the compounds formula I may be substituted for the example compound shown below with similar results. […] The skilled practitioner will appreciate that the examples provide guidance and may be varied based on condition and the patient. A composition for parenteral administration is made comprising: The above ingredients are mixed, forming a suspension. Approximately 2.0 ml of the suspension is administered, via injection, to a human subject with a premetastatic tumor. The injection site juxtaposes the tumor. This dosage is repeated twice daily, for approximately 30 days.

asthma sufferer = experiment: Example E: inhalation aerosol used by an asthma sufferer; settings: 5.0% w/v aerosol, 0.01 mL sprayed into the mouth while inhaling
Protocol: as §1, with “inhalation aerosol composition,” for “saline-based composition for local administration,”, “An asthma sufferer sprays 0.01 mL via a pump actuator into” for “A patient having deep corneal abrasion applies”, “mouth while inhaling.” for “drop to each eye twice a day.”

Compound: COc1ccc(S(=O)(=O)N2C[C@@H](Oc3ccccc3)C[C@@H]2C(=O)NO)cc1 [Example 13, (1N)-4-Methoxyphenylsulfonyl-(2R)-N-hydroxycarboxamido-(4S)-phenoxypyrrolidine]
- corneal healing [1]: Healing is speeded, with no visual sequelae

Compound: COc1ccc(S(=O)(=O)N2C[C@H](O)C[C@H]2C(=O)NO)cc1 [Example 3, (1N)-4-Methoxyphenylsulfonyl-(2S)-N-hydroxycarboxanido-(4R)-hydroxypyrrolidine]
- scarring [2]: Scarring is substantially diminished
- orthoscopy finding at the end of the treatment period (erosion/fibrillation of the articular cartilage) [3]: no further advancement of erosion/fibrillation of the articular cartilage

Compound: COc1ccc(S(=O)(=O)N2C[C@H](Sc3nccn3C)C[C@@H]2C(=O)NO)cc1 [Example 9, (1N)-4-Methoxyphenylsulfonyl-(2R)-N-hydroxycarboxado-(4R)-[(1N)-methyl-2-mercaptoimidazyl]-pyrrolidine]
- findings on examination at the end of the treatment period (inflammation, mobility, pain) [4]: reduced inflammation, and improved mobility without concomitant pain

Compound: COc1ccc(S(=O)(=O)N2C[C@@H](O)C[C@H]2C(=O)NO)cc1 [Example 4, (1N)-4-Methoxyphenylsulfonyl-(2S)-N-hydroxycarboxanido-(4S)-hydroxy-pyrrolidine]
- symptoms of the disease after 30 days [5]: symptoms of the disease subside

Compound: COc1ccc(S(=O)(=O)N2C[C@@H](O)C[C@@H]2C(=O)NO)cc1 [Example 2, (1N)-4-Methoxyphenylsulfonyl-(2R)-N-hydroxycarboxamido-(4S)-hydroxypyrrolidine]
- asthma symptoms (asthma sufferer): Asthma symptoms are diminished
